Data set [1] can be described thus: Trypanosoma cruzi growth suppression in host cells – NIH3T3 host cells, beta-gal luminescence, confirmation (AID 2044).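 Further: intracellular parasites grown in NIH/3T3 mouse fibroblasts as host cells; luminescent beta-galactosidase reporter signal from transgenic T. cruzi replicating inside host cells; inhibitors lower the luminescence signal.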 Format: functional, cell-based.
Data set [2] can be described thus: NIH3T3 cell viability loss – ATP luminescence, mouse fibroblasts, counter-screen, dose response (AID 2010).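 Further: cells exposed to compound for about 90 hours before reading.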 Format: functional, cell-based. (A counterscreen serves to expose hits that act by an unwanted route or on another target.)
The target of data set [3] is T1, Corticotropin-releasing factor receptor 2/Corticotropin-releasing factor-binding protein (Homo sapiens, UniProt P24387+Q13324).
T1 sequence (Q13324 whole entry): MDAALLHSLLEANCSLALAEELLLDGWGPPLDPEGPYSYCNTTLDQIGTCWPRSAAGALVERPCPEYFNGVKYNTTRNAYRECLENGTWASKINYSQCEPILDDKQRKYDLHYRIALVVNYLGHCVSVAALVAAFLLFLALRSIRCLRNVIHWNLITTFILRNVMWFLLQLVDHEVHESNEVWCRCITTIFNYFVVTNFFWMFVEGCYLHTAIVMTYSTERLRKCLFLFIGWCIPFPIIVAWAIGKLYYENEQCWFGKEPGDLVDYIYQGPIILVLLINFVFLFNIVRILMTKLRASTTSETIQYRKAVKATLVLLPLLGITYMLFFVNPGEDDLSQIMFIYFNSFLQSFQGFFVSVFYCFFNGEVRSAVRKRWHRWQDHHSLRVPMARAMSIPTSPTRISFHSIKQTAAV
T1 sequence (P24387 whole entry): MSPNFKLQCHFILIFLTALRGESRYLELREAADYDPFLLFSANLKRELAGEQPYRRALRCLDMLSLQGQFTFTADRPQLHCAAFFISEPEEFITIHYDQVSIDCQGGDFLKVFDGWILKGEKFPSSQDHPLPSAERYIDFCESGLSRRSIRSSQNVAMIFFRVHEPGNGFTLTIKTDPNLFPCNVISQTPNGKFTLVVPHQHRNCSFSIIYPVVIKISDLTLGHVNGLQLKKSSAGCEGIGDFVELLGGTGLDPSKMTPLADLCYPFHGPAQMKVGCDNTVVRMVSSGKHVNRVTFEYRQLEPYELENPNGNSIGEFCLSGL
Nature of the data set: activators of CRF receptor 2 with binding protein – uHTS hits, confirmation (AID 602473). Format: functional. The conditions noted are these: read-out: EC50_Mean.

Data set [4] can be described thus: viability of uninfected HEp-2 cells – cell-based, HTS, cytotoxicity control for RSV inhibitor project, dose response (AID 2410). Format: functional. The conditions noted are these: human respiratory syncytial virus.
Another data set addresses Cytochrome P450 3A4 (Homo sapiens, UniProt P08684).
The next data set concerns the target Cytochrome P450 2C19 (Homo sapiens, UniProt P33261). Nature of the data set: Cytochrome panel assay with activity outcomes. Panel member name: p450-cyp2c19 Compounds with AC50 equal or less than 10 uM are considered active. Format: functional.
Data set [5] can be described thus: Luminescence Cell-Based Dose Response HTS to Identify Activators of Luciferase Translation or Activity in H4 […] Cells. [Related pubchem assays: 1829 (Project Summary), 1814 (Primary HTS)]. Format: functional.
For the next data set, the system named is H4. Nature of the data set: Luminescence Cell-Based Dose Response HTS to Identify Activators of 5'UTR Stem-Loop Driven Prion Protein mRNA Translation in H4 Neuroglioblastoma Cells. [Related pubchem assays: 1829 (Project Summary), 1814 (Primary HTS)]. Format: functional. The conditions noted are these: Homo sapiens.

Activity calls are given as the source filed them.

Cytochrome P450 2C19, sequence (P33261 whole entry): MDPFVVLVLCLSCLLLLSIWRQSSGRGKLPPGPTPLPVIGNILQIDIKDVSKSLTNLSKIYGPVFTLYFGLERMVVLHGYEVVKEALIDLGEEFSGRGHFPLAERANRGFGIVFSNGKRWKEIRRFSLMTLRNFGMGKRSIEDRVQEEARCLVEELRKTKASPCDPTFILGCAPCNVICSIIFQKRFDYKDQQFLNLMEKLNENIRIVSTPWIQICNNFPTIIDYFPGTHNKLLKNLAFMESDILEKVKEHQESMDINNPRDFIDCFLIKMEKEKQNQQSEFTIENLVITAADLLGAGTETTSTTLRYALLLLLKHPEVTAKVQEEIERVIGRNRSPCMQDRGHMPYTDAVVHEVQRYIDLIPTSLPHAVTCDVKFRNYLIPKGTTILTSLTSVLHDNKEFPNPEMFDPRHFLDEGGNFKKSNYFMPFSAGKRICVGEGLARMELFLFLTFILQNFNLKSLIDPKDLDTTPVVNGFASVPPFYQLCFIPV
Cytochrome P450 3A4, sequence (P08684 whole entry): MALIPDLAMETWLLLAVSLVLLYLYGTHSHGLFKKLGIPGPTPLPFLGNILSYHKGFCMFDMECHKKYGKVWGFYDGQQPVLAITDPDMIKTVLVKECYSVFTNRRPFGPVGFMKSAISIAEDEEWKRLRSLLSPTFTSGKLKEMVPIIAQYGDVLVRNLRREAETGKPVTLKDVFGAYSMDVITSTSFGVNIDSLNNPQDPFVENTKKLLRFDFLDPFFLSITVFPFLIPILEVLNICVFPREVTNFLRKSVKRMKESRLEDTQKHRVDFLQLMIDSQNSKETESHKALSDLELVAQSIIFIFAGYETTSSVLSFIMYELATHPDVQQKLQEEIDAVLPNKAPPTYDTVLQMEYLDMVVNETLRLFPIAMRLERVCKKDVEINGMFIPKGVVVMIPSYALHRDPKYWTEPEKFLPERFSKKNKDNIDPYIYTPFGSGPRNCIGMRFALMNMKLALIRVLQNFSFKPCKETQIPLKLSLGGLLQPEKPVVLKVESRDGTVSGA

Regarding `COC(=O)Nc1nc(-c2cc(Cl)ccc2Cl)cs1`, the figures for the EC50 in data set [1] and in data set [2] were 0.572 µM (active) and > 60 µM (not active), respectively.
Regarding `C[C@H]1O[C@@H](O[C@H]2CC[C@@]3(C)C(CC[C@]4(C)C3C=C[C@]35OC[C@@]6(CCC(C)(C)C[C@H]63)[C@@H](O)C[C@]54C)[C@]2(C)CO)[C@H](O)[C@@H](O[C@@H]2O[C@H](CO)[C@@H](O)[C@H](O)[C@H]2O)[C@H]1O` (some centres undefined), in data set [3], the EC50 was 9.4 µM (active).
On to `Cc1nc(C(=O)NC2CCCCC2)sc1C1(C)CC(c2cccnc2)=NO1` (centres undefined), for which the results for the EC50 in data set [1] and in data set [2] were 1.3 µM (active) and > 60 µM (not active), respectively.
The term CC50 denotes the concentration giving 50% cytotoxicity. For the molecule `O=C(NCCOc1ccccc1F)c1cccc(S(=O)(=O)N2CCN(c3ccccc3)CC2)c1`, the CC50 in data set [4] is 22.2 µM (active).
`Cc1c(CN2CCC(CO)(Cc3ccccc3)CC2)c2ccccc2n1C`: the EC50 in data set [1] is 2.4 µM (active); in data set [2], 9.85 µM (active).
For the molecule `CCOC(=O)c1cn(Cc2ccccc2)c(C(=O)OC(C)(C)C)c1O`, the EC50 in data set [3] was 5.22 µM (active).
As to `COC(=O)c1ccc(NC(S)=Nc2ccccn2)cc1`, the CC50 in data set [4] was 41.6 µM (active).
The AC50 is the concentration at which the activity in the assay is half-maximal. As for `c1ccc2c[n+](Cc3ccnc4ccccc34)ccc2c1`, at Cytochrome P450 3A4, the half-maximal activity concentration (AC50) was 1.26 µM (inconclusive).
With `COc1ccc2cc(CN(Cc3cccnc3)Cc3nnnn3Cc3ccccc3)c(O)nc2c1`, the EC50 was 0.554 µM (active) in data set [1] and > 60 µM (not active) in data set [2].
On to `CC1CCN(C(=O)CSc2nc3ccccc3c(=O)n2Cc2ccc3c(c2)OCO3)CC1`, for which the CC50 in data set [4] was 33.5 µM (active).
Turning to `Cc1ccn2cc(-c3cccc(NC(=O)c4cccs4)c3)nc2c1`, the CC50 in data set [4] is 26.1 µM (active).
Consider `Cn1c(=O)c(-c2cc(F)cc(F)c2)nc2cncnc21`, for which the AC50 on Cytochrome P450 3A4 was 1.26 µM (inconclusive).
As to `O=C(Cn1cnc2ccccc21)NC(c1ccccc1)c1ccccc1`, the AC50 at Cytochrome P450 2C19 (read-out: AC50) is 20 µM (inconclusive).
With `CO[C@@H]1/C=C\O[C@]2(C)Oc3c(C)c(O)c4c(O)c(cc(O)c4c3C2=O)NC(=O)/C(C)=C\C=C/[C@H](C)[C@@H](O)[C@H](C)[C@H](O)[C@H](C)[C@H](OC(C)=O)[C@@H]1C`, at Cytochrome P450 3A4, the AC50 is 3.98 µM (inconclusive).
With `Cn1c(N)c(C(=O)Nc2ccc3ccccc3c2)sc1=S`, the EC50 in data set [5] is 0.117 µM (active); with H4, 0.279 µM (active).
On to `Cc1cc2c(cc1S(=O)(=O)CCC(=O)NC1CCCCC1C)OCC(=O)N2` (centres undefined), for which the EC50 in data set [3] was > 53 µM (inactive).
With `CC(=O)Nc1ccc(-c2csc(NCCc3ccccc3)n2)cc1`, in data set [4], the CC50 was 41.3 µM (active).
As for `COc1ccc(C2C(C(=O)c3ccc4c(c3)CC(C)O4)=C(O)C(=O)N2CCN2CCOCC2)cc1` (centres undefined), the values for the AC50 entry at Cytochrome P450 2C19 and on Cytochrome P450 3A4 were “inconclusive” and 28.2 µM (inconclusive), respectively.
Turning to `Cc1ccccc1C(=O)Oc1ccc(Br)cc1C(=S)N1CCCC1`, the AC50 at Cytochrome P450 3A4 is 8.91 µM (inconclusive).
For `CCc1ccccc1OCC(=O)Nc1ccc2c(c1)OCCO2`, the CC50 in data set [4] is 35.6 µM (active).
With `COc1ccc(F)cc1C(=O)C1CCCN(Cc2cnc(N3CCCC3)s2)C1` (centres undefined), the EC50 in data set [1] is 0.303 µM (active); in data set [2] it was > 60 µM (not active).
On to `CC(C)(C)c1ccc(OCC(=O)O)c(Cl)c1`, for which the AC50 entry at Cytochrome P450 2C19 is on record as “inconclusive”.
`CC(C)OC(=O)c1ccc(N2CCN(c3ccc(F)cc3)CC2)nc1`: the CC50 in data set [4] is 14.8 µM (active).
As to `COc1ccc(S(=O)(=O)N2CCCCCC2)cc1C(=O)N(C)Cc1ccc(Cl)cc1Cl`, the EC50 in data set [3] was 5 µM (active).
With `C=CC[N+]1(CC#CCOC(c2ccccc2)c2ccccc2)CCOCC1.[Cl-]`, the AC50 result at Cytochrome P450 2C19 is reported as “inconclusive”.
On to `CC(=O)c1cccc(/N=C/C2=C(O)OC3(CCCCC3)OC2=O)c1`, for which the AC50 result on Cytochrome P450 2C19 was “inconclusive”; at Cytochrome P450 3A4, 35.5 µM (inconclusive).
With `O=[N+]([O-])c1ccccc1/C=C/C=N/Nc1ccc(S(=O)(=O)Nc2ccc(Cl)cc2)cc1[N+](=O)[O-]`, the EC50 is 1.35 µM (active) in data set [1] and > 60 µM (not active) in data set [2].
In the case of `CC[C@@H]1OC(=O)[C@H](C)[C@H](O[C@@H]2C[C@](C)(OC)[C@H](O)[C@H](C)O2)[C@H](C)[C@H](O[C@@H]2O[C@@H](C)C[C@@H](N(C)C)[C@@H]2O)[C@](C)(O)C[C@H](C)C(=NOCOCCOC)[C@H](C)[C@H](O)[C@]1(C)O`, the AC50 at Cytochrome P450 3A4 is 12.6 µM (inconclusive).
Still for that read-out and setting: then `CN(Cc1ccco1)c1nc(-c2ccccc2C(F)(F)F)nc2ccccc12`, with 12.6 µM (inconclusive); and `Cc1ccc(-c2csc3ncnc(NCCN4CCOCC4)c23)cc1`, with 1.12 µM (inconclusive).
On to `COc1cc(SC)ccc1C(=O)NCCc1c[nH]c2ccccc12`, for which the CC50 in data set [4] is 19.9 µM (active).
For `CCOc1cc(/C=N/NC(N)=S)cc(Br)c1OCc1ccccc1C`, the EC50 in data set [1] was 0.114 µM (active); in data set [2] it was > 60 µM (inconclusive).
Consider `CCn1c(NCc2cc(Br)ccc2NS(=O)(=O)c2ccc(C)cc2)nc2ccccc21`, for which the figures for the EC50 in data set [1] and in data set [2] were 2.61 µM (active) and > 60 µM (not active), respectively.
Consider `Cc1noc(C)c1-c1nccc(N2CCOCC2)n1`, for which, on Cytochrome P450 2C19 (read-out: AC50), the AC50 was 10 µM (inconclusive).
Turning to `O=[N+]([O-])c1ccc(S(=O)(=O)NCC(c2ccco2)N2CCc3ccccc3C2)cc1` (centres undefined), the EC50 was 1.86 µM (active) in data set [1] and > 60 µM (not active) in data set [2].
`COc1ccccc1NC(=O)N(Cc1ccco1)Cc1cc2cc(C)cc(C)c2nc1O`: the CC50 in data set [4] was 3.83 µM (active).
For the molecule `C=C1CCC[C@]2(C)C[C@H]3OC(=O)C(CN(C)CC(OC)OC)[C@H]3CC12` (some centres undefined), in data set [4], the CC50 was 11.4 µM (active).
Take `CCn1nc(C)c(NC(=O)/C=C/c2ccc(OC)c(COc3ccc(Cl)cc3Br)c2)c1C`: the EC50 was 0.736 µM (active) in data set [1] and > 60 µM (not active) in data set [2].
`Brc1ccc(C2=Nn3cnnc3SC2)cc1`: the CC50 in data set [4] is 27.9 µM (active).
Turning to `N#C/C(=C/C=C/c1ccccc1)C(=O)Nc1ccccc1`, the EC50 in data set [1] was 8.82 µM (active); in data set [2] it was > 60 µM (not active).
With `O=C(Nc1ccc(Br)cc1)c1c[nH]cn1`, the values for the EC50 (in data set [5]; in the data set on H4) were 34.8 µM (active) and 28.8 µM (active), respectively.
For the molecule `CN1CCN(CCCNC(=O)c2ccc(CSCc3cccc(Cl)c3)o2)CC1`, the AC50 at Cytochrome P450 3A4 is 22.4 µM (inconclusive).
With `CCOC(=O)c1sc2nc3n(c(=O)c2c1C)CCC(C)CC3` (centres undefined), the CC50 in data set [4] was 38.3 µM (active).
The same measure, in the same setting: then `C[C@]12CCC3C(CCC4=C/C(=N/OCC(=O)NC(CCC(N)=O)C(=O)O)CC[C@@]43C)C1CCC2O` (some centres undefined), with 22.6 µM (active).
Regarding `CCCCCSc1nncc(O)n1`, the AC50 on Cytochrome P450 2C19 (read-out: AC50) was 39.8 µM (inconclusive).
Consider `CCOc1nn(-c2ccccc2)c(O)c1/C=N/c1ccc(Cl)cc1`, for which the AC50 on Cytochrome P450 3A4 is 20 µM (inconclusive).
Take `O=C(NCCCN1CCOCC1)c1cc(C(=O)C2CC2)c[nH]1`: the AC50 at Cytochrome P450 2C19 (read-out: AC50) was 3.98 µM (inconclusive).
For the molecule `CC1(C)CC(=O)C([C@H]2C3=C(CC(C)(C)CC3=O)Oc3ccccc32)C(=O)C1`, the AC50 at Cytochrome P450 3A4 was 15.8 µM (inconclusive).
As to `CCCCCCc1cc2cc(C(=N)NNC(=O)c3ccncc3)c(=O)oc2cc1O`, the EC50 in data set [3] was 1.11 µM (active).
As for `CCn1nc(NC(=O)COC)c2cc3cccc(C)c3nc21`, the cytotoxic concentration (CC50) in data set [4] was > 50 µM (active).
On to `CNc1ccnc(-c2ccccc2C)n1`, for which the AC50 on Cytochrome P450 2C19 (read-out: AC50) is 31.6 µM (inconclusive); at Cytochrome P450 3A4 it was 15.8 µM (inconclusive).
Consider `CCN1CCc2c(C#N)c(NCc3ccccc3)nc(N(CC)CC)c2C1`, for which the EC50 in data set [1] is 0.426 µM (active); in data set [2] it was > 15 µM (not active).

The record behind these values is ChEMBL document CHEMBL1201862, “PubChem BioAssay data set” (2004).
